This is an account of results in patent US9884066B2, “Bile acid-basic amino acid conjugates and uses thereof” (priority 2013, dated 2018).

Molecules are shown by their SMILES. “And” between values parts separate entries of the source, which are not always exact repeats. Equal entries are not always repeated. Where two headings read alike, the source gives them in different places.

The test system of data set [1] is mice fed a high fat diet (HFD). Kind of data set: High fat diet (HFD) model in mice, five-week feeding with supplemented diets.
In data set [2] the test system is livers of mice fed a high fat diet (HFD). Kind of data set: Histological evaluation of livers by H&E staining, scored by Modified Brunt Criteria (five-week HFD model). It counts as in vivo, C57BL mice. The note with it: end of week 5; for Portal inflammation / Ballooning and disarray / Fibrosis: score per liver section; for Ballooning and disarray: * = and megakarya; for Fibrosis: ** = oval cell proliferation. As to the method:
For liver histology, animals were sacrificed and liver tissues were removed and fixed in 4% formalin at room temperature. Liver sections were subjected to Hematoxylin-Eosin staining (PathoVet Veterinary Pathology Services, Rehovot, Israel).
Histological evaluation of livers was performed by H&E staining at the end of week 5. In the figure, arrows indicate micro and macrovesicular steatosis, and arrow heads indicate hepatocyte ballooning. […] This histological observation was in correlation with the elevated levels of blood liver enzymes SGOT and SGPT described above.

The test system of data set [3] is SREBP1c. Briefly: Liver protein level by Western blot. It counts as in vivo, mice. As to conditions: beta-actin as control; FIG. 13C. The text has this:
(§1) FIG. 13. Effect of CDCArg on lipogenic gene expression and energy expenditure related genes in the liver. Treatments: mice were fed with LFD for 14 weeks or with HFD for 10 weeks. At week 10 the HFD group was divided randomly into two equal groups that were pair fed. One group received HFD, while the other group received HFD+CDCArg. mRNA levels of (A) PGC1α, (B) PPARα. (C) Protein level of sterol regulatory element binding protein 1c (SREBP1). *p<0.05, statistically different from control by student t-test. GAPDH was used as housekeeping normalizing gene.
SREBP1c was analyzed by Western blot analysis using beta-actin as control. Abs: Anti SREBP-1 Santa Cruse (Sc-367); Secondary goat Anti-Rabbit IgG, Jackson ImmunoResearch, Mouse Anti-Actin (612656) BD Transduction Laboratories. Secondary goat Anti-mouse IgG, Jackson ImmunoResearch.
(In general: A western blot detects proteins with antibodies after separation by electrophoresis.)

Data set [4] relates to mice fed a high fat diet (HFD). As to conditions: for Liver weight: FIG. 12d. The text has this:
Mice were randomly divided into two dietary groups:
1) Control diet: low-fat diet (LFD), 16% calories from fat (n=5);
2) High-fat diet (HFD): 60% calories from fat (mainly palm stearin) (n=16).
In order to determine the effects of CDCArg following the onset of liver steatosis, mice were first treated for 10 weeks with HFD to develop hepatic fat accumulation. Thereafter, the HFD-fed mice were divided to two equal groups (n=8 in each group): (a) continued the previous HFD treatment, and (b) HFD+CDCArg 0.5% w/w. In this part of the experiment mice were pair-fed (15.5 kCal/day per mice). The LFD control group consumed on average the same amount of calories per day per mice. The duration of treatment with CDCArg was four (4) weeks. Food consumption and gain of weight were evaluated.
To assess the impact of CDCArg on intestinal absorption, fecal lipid contents were measured before and after CDCArg consumption. Total lipids were extracted from feces using Folch's method (Folch et al., 1957, J Biol Chem, 226:497-509) after collecting feces during weeks 9-10 and 12-13. […] The effect of CDCArg on insulin resistance was evaluated using intraperitoneal glucose tolerance test (IPGTT). Glucose tolerance was assessed in the mice during the eighth and fourteenth weeks of the study (before and after the beginning of treatment with CDCArg). IPGTT was performed in 12 hours-fasted mice by injecting glucose (2 g/kg in 20% solution) intraperitoneally. Blood samples were obtained by cutting the tail tip and glucose concentration was measured after 0, 30, 60, 90, and 120 minutes.

Data set [5] concerns PGC1α. Briefly: Liver gene expression, mRNA by reverse-transcription and real time PCR. It counts as in vivo, mice. As to conditions: GAPDH normalizing gene; FIG. 13A.
Excerpt: as §1
(§2) Gene expression analyses of PPARα and PGC1α were performed by quantifying mRNA levels by reverse-transcription and real time PCR. GAPDH (glyceraldehyde 3-phosphate dehydrogenase) was used as housekeeping normalizing gene. The following primers were used: […]
(In general: In qPCR the cycle at which signal appears reflects the starting amount.)

For data set [6], the system named is PPARα. The description is as above. Type of data set: in vivo, mice. As to conditions: GAPDH normalizing gene; FIG. 13B.
Excerpt: as §1, §2

Data set [7] relates to AMPK. Briefly: Liver AMPK and pAMPK levels by Western blot. It counts as in vivo, mice. The procedure:
The levels of AMPK and pAMPK were analyzed using Western blot analysis.

The subject of data set [8] is mice fed a high fat diet (HFD). Kind of data set: Intraperitoneal glucose tolerance test (IPGTT) in HFD-fed mice. Type of data set: in vivo. As to conditions: week fourteen; glucose 2 g/kg i.p., 12 hours-fasted; FIG. 11. The text has this: FIG. 11. Effect of CDCArg on insulin resistance as evaluated by intra-peritoneal glucose tolerance test (IPGTT). (A) IPGTT performed at weeks eight and (B) fourteen (before and after the beginning of treatment). Values are expressed as mean±SEM (n=8-9 animals per group). Means with * are statistically higher than Control group, p<0.05 (t.test (a) one way ANOVA, Post Hoc dunnett test (b)).

For data set [9], the system named is mice fed a high fat diet (HFD). The note with it: mouse, in vivo.

In the case of `N=C(N)NCCC[C@H](N)C(=O)O` [Arg, L-arginine, reference compound], the “Average triglycerides in the blood” value in [1] (end of week 5, FIG. 5a) is on record as “higher level of blood triglycerides”. Moreover, the “Average total cholesterol in the blood” value in data set [1] (end of week 5, compared to control low fat diet, FIG. 4) is reported as “significantly increased levels of total blood cholesterol”. Further, in [2] (FIG. 9), the “Liver damage by histology (H&E staining)” value is given as “increased liver damage”. In [2], this compound returned a Portal inflammation of 0; a Ballooning and disarray of 0; a Fibrosis of 0.

For the compound `CCOC(=O)[C@H](CCCNC(=N)N)NC(=O)CC[C@@H](C)[C@H]1CC[C@H]2[C@@H]3[C@H](O)C[C@@H]4C[C@H](O)CC[C@]4(C)[C@H]3CC[C@]12C` [CDCArg, Chenodeoxycholyl-Arginine-Ethyl Ester], in [3], the “SREBP1c protein expression in the liver” value was “suppress the protein expression”. Moreover, the Body weight gain result in data set [4] (HFD+CDCArg 0.5% w/w for 4 weeks after 10 weeks HFD, vs continued HFD, FIG. 10a) was “prevented this weight gain”. The Adipose tissue weight entry in [4] (HFD+CDCArg compared to the HFD group, FIG. 10b) is recorded as “substantially lower”. Also, in [4] (HFD+CDCArg vs HFD group, FIG. 12e), the “Liver micro and macro steatosis (histological evaluation)” value is “lesser liver micro and macro steatosis”. Also, the Liver weight result in [4] (HFD+CDCArg vs HFD group) is “significantly lower”. Besides, the Liver weight result in data set [4] (HFD+CDCArg vs control (LFD) group) is recorded as “even lesser than in control”. Further, in data set [4] (mouse, in vivo), the “Alkaline phosphatase levels in plasma” value is “not significantly altered” and the Plasma albumin levels entry was “significantly higher”. The SGPT levels result in data set [4] (plasma, HFD+CDCArg compared with the HFD group, FIG. 12a) is “significantly lower”. Besides, in data set [4] (plasma, HFD+CDCArg compared with the HFD group, FIG. 12b), the SGOT levels entry is reported as “significantly lower”. Also, the “Fat contents in feces” value in [4] (weeks 12-13, Folch's method, FIG. 10d) is listed as “significantly higher”. Moreover, the “PGC1α mRNA level in the liver” value in data set [5] is reported as “activated”. The “PPARα mRNA level in the liver” value in [6] is “activated”. In addition, the “Ratio of phosphorylated AMPK (pAMPK) to AMPK” value in data set [7] is “tending to be higher”. For the same compound, in [8], the “Area under the curve of the glycemic response (IPGTT)” value is “decreasing the area under the curve of the glycemic response” and the “Peak glucose values in the IPGTT” value is on record as “lowering the peak glucose values”. The “Average weight of adipose tissue (testicular fat)” value in data set [1] (end of week 5, compared to HFD alone or HFD+Arg, FIG. 3) was “significantly lower increase in testicular fat weight”. Also, in data set [1] (end of week 5, compared to control diet, FIG. 7), the Average liver weight result is listed as “no difference in liver weight compared to control”. Besides, the “Average body weight (increase)” value in data set [1] (five weeks, among groups that consumed a high fat diet, FIG. 2) is given as “lowest increase in body weight”. Besides, the “Plasma level of insulin” value in data set [1] (five weeks, compared to the HFD group, FIG. 8b) is listed as “significantly decreased”. For the same compound, in data set [1] (five weeks, compared to the HFD group, FIG. 8c), the “Plasma level of leptin” value is “significantly decreased”. In addition, in data set [9], the “General toxicity (plasma creatinine, sodium, potassium and chloride levels)” value was “without toxicity effects”; the “Saturated fat-induced liver damage (blood SGOT, SGPT)” value is “did not potentiate saturated fat-induced liver damage”. In [2], the Portal inflammation is 0 and 1; the Ballooning and disarray was found to be 0; the Fibrosis stood at 0.
